Reference: ChEMBL document CHEMBL1153962, “Thiodisaccharides with galactofuranose or arabinofuranose as terminal units: synthesis and inhibitory activity of an exo beta-D-galactofuranosidase” (Bioorg Med Chem, 2009)
pIC50: −log10 of the molar value. The source made the active and inactive calls. The rule behind the calls is not given here.

How the values were obtained:
Penicillium fellutanum = assay: Inhibition of Penicillium fellutanum exo beta-D-galactofuranosidase assessed as 4-nitrophenol release at 0.2 to 1 mM by spectrophotometry
[1] = Inhibition of Penicillium fellutanum exo beta-D-galactofuranosidase assessed as 4-nitrophenol release by spectrophotometry

CO[C@H]1O[C@H](CS[C@@H]2O[C@@H](CO)[C@H](O)[C@H]2O)[C@@H](O)[C@H](O)[C@H]1O
Activity (Penicillium fellutanum): inactive

CO[C@H]1O[C@H](CS[C@@H]2O[C@@H]([C@H](O)CO)[C@H](O)[C@H]2O)[C@H](O)[C@H](O)[C@H]1O
Activity (Penicillium fellutanum): Active
pIC50 [1]: < 3.00

O=C1O[C@@H]([C@H](O)CO)[C@H](O)[C@H]1O
pIC50 [1]: 4.70

CC1(C)O[C@H]2[C@@H](O1)[C@@H](CS[C@@H]1O[C@@H]([C@H](O)CO)[C@H](O)[C@H]1O)O[C@@H]1OC(C)(C)O[C@@H]12
Activity (Penicillium fellutanum): Active
pIC50 [1]: < 3.00
